Measured values from publication PMC8528301 (PLoS ONE, 2021).
Values joined by “and” are separate entries in the source; they are usually repeats but may differ in a detail not shown here. Equal values may be shown once.

Columns and labels:
[1] = Plasma DEX concentrations on discontinuous oral DEX regimen in drinking water (Fig 3); format: in vivo, mouse; conditions: for concentration at 3.5 day / concentration at 10.5 day / concentration at 17.5 day: C57BL/6, mouse, oral, 8 mg/L, Dexamethasone conc; for observed systemic (plasma) concentrations of DEX, range: mice on the discontinuous DEX regimen
Experimental: (§1) 1 g/L of tetracycline (Sigma-Aldrich Inc, St. Louis, MO, USA) was added during both phases. Assuming that mice drink 5 mL of water per day, the dose they receive would be 1.6–2 mg/kg/day. […] At the end of in vivo procedures, all plasma samples were transferred from dry ice and stored at –80°C until analysis.
Sidak’s multiple comparison test (**p<0.01, ****p<0.0001) was used to further analyze the effect of vitamin D status at each time point.

in vivo = conditions: female, C57BL/6, mouse, plasma, po, 2 mg/kg
Experimental: Blood was collected via saphenous/retro-orbital vein at time points: 0.25, 0.75, 0.5, 1, 1.5, 2, 4, 8, 16 hours after treatment. Three sets of mice were used for this experiment, where set 1 was sampled at 2,4,8 hr; set 2 at 0.25, 0.75, 1.5 hr; set 3 at 0.5, 1 and 16 hr. Samples were centrifuged at 10,000 rpm for 2 minutes, plasma was removed and stored at -80°C until further analysis.
Briefly, parameters and the Fisher Information Matrix (FIM) were estimated using the stochastic approximation expectation maximization (SAEM) algorithm, and the final log-likelihood estimated with importance sampling, all using the default Monolix initial settings, except that 1000 iterations were permitted for estimation of FIM using stochastic approximation. A variety of models were fit to the respective compound’s Ct data, parameterized using apparent clearances, volumes of distribution, and absorption rate constant as needed. […] A log-normal inter-individual and inter-occasion parameter distribution was assumed on selected supported parameters, with both on- and off-diagonal elements of parameter covariance matrices tested. Additive and/or proportional error models were tested and implemented as supported. Beal’s M3 method was used to fit any data that were below the LLOQ or above the upper limit of the assay range [20]. […] Additionally, Wald test P values were outputted for each covariate effect by the Monolix software.
Additionally, Wald test P values were outputted for each covariate effect by the Monolix software.

[2] = Repeated discontinuous oral DEX PK study (another 60 mice); format: in vivo, mouse; conditions: for share of mice with measurable DEX / share of mice with DEX plasma concentration below LLOQ: Days 3.5+10.5; for share of mice with DEX plasma concentration below LLOQ: LLOQ = 5 nM; for concentration at 3.5 day / concentration at 10.5 day / concentration at 17.5 day: 8 mg/L, Average ± S.D. of quantifiable samples; for concentration at 3.5 day: Day 3.5; for concentration at 10.5 day: Day 10.5; for concentration at 17.5 day: Day 17.5
Experimental: as §1

[3] = female, C57BL/6, mouse, plasma, oral, DEX conc, plasma, repeated study, VD3 Sufficient, F, n=5

In the case of `C[C@@H]1C[C@H]2[C@@H]3CCC4=CC(=O)C=C[C@]4(C)[C@@]3(F)[C@@H](O)C[C@]2(C)[C@@]1(O)C(=O)CO` [DEX, dexamethasone], the “estimated Cgut (gut concentration)” value ([1]; discontinuous DEX in drinking water, assuming mice drink 200–400 μl/hr) is reported as 7 to 10 µM and 7.6 to 10.1 µM, the concentration at 3.5 day ([1]; female, plasma, avg, VD3 deficient, D3.5, n=5) is reported as 78 nM and the concentration at 10.5 day ([1]; female, plasma, avg, VD3 deficient, D10.5, n=4) is reported as 63 nM. It also gave a concentration at 17.5 day ([1]; female, plasma, avg, VD3 deficient, D17.5, n=4) of 58.5 nM, a concentration at 3.5 day ([1]; female, plasma, avg, VD3 sufficient, D3.5, n=5) of 99.3 nM and a concentration at 10.5 day ([1]; female, plasma, avg, VD3 sufficient, D10.5, n=4) of 52.7 nM. It also gave a concentration at 17.5 day ([1]; female, plasma, avg, VD3 sufficient, D17.5, n=5) of 38.7 nM, a concentration at 10.5 day ([1]; female, plasma, individual mouse, VD3 deficient (GCD), D10.5) of 58.6 nM and a concentration at 3.5 day ([1]; female, plasma, individual mouse, VD3 sufficient (MRE), D3.5) of 95.6 nM. The concentration at 10.5 day ([1]; female, plasma, individual mouse, VD3 sufficient (MRE), D10.5) was 49.9 nM, the concentration at 3.5 day ([1]; male, plasma, avg, plasma, male, VD3 deficient, day 3.5, n=8) was 31.7 nM and the concentration at 10.5 day ([1]; male, plasma, avg, plasma, male, VD3 deficient, day 10.5, n=13) was 25.3 nM. For the same compound, the concentration at 17.5 day ([1]; male, plasma, avg, plasma, male, VD3 deficient, day 17.5, n=13) was 13.1 nM, the concentration at 3.5 day ([1]; male, plasma, avg, plasma, male, VD3 sufficient, day 3.5, n=11) was 12.4 nM and the concentration at 10.5 day ([1]; male, plasma, avg, plasma, male, VD3 sufficient, day 10.5, n=11) was 18 nM. The concentration at 17.5 day ([1]; male, plasma, avg, plasma, male, VD3 sufficient, day 17.5, n=11) was 13.3 nM, the “observed systemic (plasma) concentrations of DEX, range” value [1] was 2.6 to 201.5 nM and the “observed systemic (plasma) concentrations of DEX, range” value ([1]; listed as Dexamethasone) was 2 to 200 nM. The “Dexamethasone conc, individual mouse” value ([1]; plasma, female, VD3 deficient (GCD), D3.5) was 88.42 nM and 34.10 nM and 126.21 nM and 104.66 nM and 36.85 nM, the “Dexamethasone conc, individual mouse” value ([1]; plasma, female, VD3 deficient (GCD), D10.5) was 55.47 nM and 71.15 nM and 66.95 nM and the “Dexamethasone conc, individual mouse” value ([1]; plasma, female, VD3 deficient (GCD), D17.5) was 84.72 nM and 78.40 nM and 26.56 nM and 44.39 nM. For the same compound, the “Dexamethasone conc, individual mouse” value ([1]; plasma, female, VD3 sufficient (MRE), D3.5) was 94.88 nM and 116.14 nM and 126.22 nM and 63.45 nM, the “Dexamethasone conc, individual mouse” value ([1]; plasma, female, VD3 sufficient (MRE), D10.5) was 50.92 nM and 57.26 nM and the “Dexamethasone conc, individual mouse” value ([1]; plasma, female, VD3 sufficient (MRE), D17.5) was 24.99 nM and 23.28 nM and 21.33 nM and 61.18 nM and 62.62 nM. For the same compound, the “Dexamethasone conc, individual mouse” value ([1]; plasma, male, VD3 deficient (GCD), 3.5 Days, discontinuous DEX in drinking water) was 28.49 nM and 21.78 nM and 23.16 nM and 14.22 nM and 52.94 nM and 69.07 nM and 12.19 nM, the “Dexamethasone conc, individual mouse” value ([1]; plasma, male, VD3 deficient (GCD), 10.5 Days) was 24.64 nM and 18.60 nM and 35.12 nM and 50.14 nM and 22.77 nM and 19.09 nM and 13.20 nM and 32.61 nM and 4.50 nM and 20.98 nM and 51.76 nM and 9.92 nM and the “Dexamethasone conc, individual mouse” value ([1]; plasma, male, VD3 deficient (GCD), 17.5 Days) was 7.03 nM and 9.03 nM and 37.95 nM and 11.09 nM and 12.27 nM and 10.43 nM and 10.75 nM and 8.20 nM and 7.99 nM and 10.52 nM and 14.43 nM and 17.77 nM. The “Dexamethasone conc, avg” value ([1]; plasma, male, VD3 deficient, day 3.5, n=8) was 31.70 nM, the “Dexamethasone conc, individual mouse” value ([1]; plasma, male, VD3 sufficient (MRE), 3.5 Days) was 10.97 nM and 6.41 nM and 7.05 nM and BLQ (BLQ = BELOW the LLOQ, lower lmit of quantification = 5 nM dexamethasone) and 3.62 nM and 34.11 nM and the “Dexamethasone conc, individual mouse” value ([1]; plasma, male, VD3 sufficient (MRE), 10.5 Days) was 56.24 nM and 2.95 nM and 2.63 nM and 10.01 nM and 12.14 nM and BLQ (BLQ = BELOW the LLOQ, lower lmit of quantification = 5 nM dexamethasone) and 34.37 nM and 7.89 nM. The “Dexamethasone conc, individual mouse” value ([1]; plasma, male, VD3 sufficient (MRE), 17.5 Days) was 9.70 nM and 6.19 nM and 17.34 nM and 10.75 nM and 11.40 nM and 11.09 nM and 17.17 nM and 6.62 nM and 29.23 nM, the concentration at 2 h (in vivo) was 676 ng/mL and the “share of mice with measurable DEX” value ([2]; female VD3 deficient) was 100%. For the same compound, the “share of mice with DEX plasma concentration below LLOQ” value ([2]; female VD3 sufficient) was 68%, the concentration at 3.5 days ([2]; female, C57BL/6, mouse, plasma, oral, 8 mg/L in drinking water, DEX conc, individual mouse, repeated study, VD3 Suf, 3.5 Days) was 52.8 nM and the concentration at 10.5 days ([2]; female, C57BL/6, mouse, plasma, oral, 8 mg/L in drinking water, DEX conc, individual mouse, repeated study, VD3 Suf, 10.5 Days) was 6.84 nM. For the same compound, the concentration at 3.5 day ([2]; female, C57BL/6, mouse, plasma, oral, DEX conc, plasma, repeated study, VD3 Deficient, F, n=15) was 51.8 ± 86.8 nM, the concentration at 10.5 day ([2]; female, C57BL/6, mouse, plasma, oral, DEX conc, plasma, repeated study, VD3 Deficient, F, n=10) was 116 ± 169 nM and the concentration at 17.5 day ([2]; female, C57BL/6, mouse, plasma, oral, DEX conc, plasma, repeated study, VD3 Deficient, F, n=5) was 106 ± 65.5 nM. It also gave a concentration at 3.5 day [2, 3] of 47.2 ± 9.15 nM, a concentration at 10.5 day ([2]; female, C57BL/6, mouse, plasma, oral, DEX conc, plasma, repeated study, VD3 Sufficient, F, n=3) of 7.71 ± 1.12 nM and a concentration at 17.5 day [2, 3] of 45.6 ± 27.2 nM. The “% BLQ” value ([2]; female, VD3 Def, 3.5 Days) was 0%, the “% BLQ” value ([2]; female, VD3 Def, 10.5 Days) was 0% and the “% BLQ” value ([2]; female, VD3 Def, 17.5 Days) was 0%. The “% BLQ” value ([2]; female, VD3 Suf, 3.5 Days) was 67%, the “% BLQ” value ([2]; female, VD3 Suf, 10.5 Days) was 70% and the “% BLQ” value ([2]; female, VD3 Suf, 17.5 Days) was 0%. The “share of mice with measurable DEX” value ([2]; male VD3 deficient) was 96.5%, the “share of mice with DEX plasma concentration below LLOQ” value ([2]; male VD3 sufficient) was 83% and the concentration at 3.5 day ([2]; male, C57BL/6, mouse, plasma, oral, DEX conc, plasma, repeated study, VD3 Deficient, M, n=13) was 16 ± 16.6 nM. The concentration at 10.5 day ([2]; male, C57BL/6, mouse, plasma, oral, DEX conc, plasma, repeated study, VD3 Deficient, M, n=10) was 48.7 ± 59.4 nM.
